Literature values, collected in patent publication US10517855B1, “Interleukins activity inhibiting composition” (priority 2019, dated 2019).

Assays:
avian malaria = conditions: in vivo
[1] = system: haloperidol-induced catalepsy; conditions: preclinical studies
[2] = system: MK-801-induced hyperlocomotion, working memory deficit and social withdrawal; conditions: preclinical studies
[3] = preclinical studies
[4] = system: apomorphine-induced stereotypy; conditions: preclinical studies
[5] = system: amphetamine-induced lethality and stereotypy; conditions: preclinical studies

Row | SMILES | activity against avian malaria (avian malaria) | haloperidol-induced catalepsy [1] | MK-801-induced hyperlocomotion [2] | MK-801-induced social withdrawal [2] | MK-801-induced working memory deficit [2] | anxiolytic-like effects [3] | apomorphine-induced stereotypy [4] | amphetamine-induced lethality [5] | amphetamine-induced stereotypy [5]
1 | C/C=C1/CN2CC[C@@]34c5cc(O)ccc5N(C)[C@]35OC[C@@]4(C(=O)OC)[C@H]1C[C@H]25 [akuammine] | inactive | – | – | – | – | – | – | – | –
2 | COC(=O)C1=CO[C@@H](C)[C@@H]2Cn3ccc4c5ccccc5nc-4c3C[C@H]12 [Alstonine] | – | attenuates | attenuates | attenuates | attenuates | possesses anxiolytic-like effects | attenuates | attenuates | attenuates
